Test results as given in US12679878B2, “CRF2 receptor agonists and their use in therapy” (SANOFI, priority 2020, dated 2026).
Each block holds one molecule with its values, some of them ahead of it. Starred links: 1 amine or outer side, 2 acyl side, 3 side chain; linkers in the order of their positions; H or OH if unused. Non-standard residues stand in square brackets, D forms with d. Residues, ends and D or L forms follow the SMILES beside them. Groups on a side chain read outwards from the residue. No end group written: not given here. *: point of attachment. C16 diacid = O=C(O)CCCCCCCCCCCCCCC(=O)*; γGlu = O=C(O)[C@H](CCC(=O)[*:2])N[*:1]; Palmitoyl = CCCCCCCCCCCCCCCC(=O)*; AEEA = NCCOCCOCC(=O)O; Aib = CC(C)(N)C(=O)O

How the values were obtained:
human CRF2α receptor = target: T1, human CRF2α receptor (Homo sapiens, UniProt Q13324); experiment: cAMP agonism at human CRF2α receptor in TeloHEAC cells, FA modified peptides (Example 19.9); type: cell-based; details: 0% HSA, relative to urocortin 2
T1 construct: expressed in transfected cells; host or cells: TeloHEAC
T1 sequence (Q13324 1-411): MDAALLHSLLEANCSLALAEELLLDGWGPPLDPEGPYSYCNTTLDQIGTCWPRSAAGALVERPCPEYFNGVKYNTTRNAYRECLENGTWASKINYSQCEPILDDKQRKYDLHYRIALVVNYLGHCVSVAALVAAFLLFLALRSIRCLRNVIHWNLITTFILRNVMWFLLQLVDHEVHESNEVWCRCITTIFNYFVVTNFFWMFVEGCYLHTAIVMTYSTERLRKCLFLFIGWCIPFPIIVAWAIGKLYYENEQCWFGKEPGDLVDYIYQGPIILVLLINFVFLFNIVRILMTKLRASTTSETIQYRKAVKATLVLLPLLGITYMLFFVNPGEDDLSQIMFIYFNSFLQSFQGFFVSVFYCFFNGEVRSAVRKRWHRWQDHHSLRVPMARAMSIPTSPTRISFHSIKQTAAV
Description: Agonism of compounds for human corticotropin-releasing factor 2α (CRF2α receptor) was determined by a functional assay measuring cAMP modulation upon treatment of TeloHEAC cells stably expressing human CRF2α receptor.
Compounds were dissolved at 0.5 mM in 100% DMSO and serially diluted (1:2) in 100% DMSO for 16 dilutions. 20 nL of each dilution was then transferred to 384-well assay plate using an acoustic droplet ejection instrument. 5 μL of compound buffer (1×HBSS; 20 mM HEPES, 2 mM IBMX, 0% or 0.2% HSA) were then added to each well.
Prior to use, frozen cells were thawed quickly at 37° C. and washed (5 min at 900 rpm) with 20 mL cell buffer (1×HBSS; 20 mM HEPES). Cells were resuspended in cell buffer and adjusted to a cell density of 800.000 cells/ml.
5 μL cells (final dell density: 4000 cells/well) were dispensed in the compound-containing 384-well assay plate and incubated for 30 minutes 37° C.
The CAMP level in treated cells was determined using the Cisbio 62AM4PEC kit according to manufacturer's instruction. Finally, plates were incubated for 1 h at room temperature before measuring the fluorescence ratio between 665/620 nm.
The percent activity value (E %) was calculated by setting 100 nM of urocortin 2 (UCN2) as 100%. The in vitro potency of the compounds was quantified by determining the concentrations that caused 50% activation of maximal response (EC50) relative to urocortin 2.

[1] = target: T2, CRF1R receptor (anti-target) (UniProt P34998 24-415, limits assumed); experiment: cell-based or functional assay
T2 sequence (looked up): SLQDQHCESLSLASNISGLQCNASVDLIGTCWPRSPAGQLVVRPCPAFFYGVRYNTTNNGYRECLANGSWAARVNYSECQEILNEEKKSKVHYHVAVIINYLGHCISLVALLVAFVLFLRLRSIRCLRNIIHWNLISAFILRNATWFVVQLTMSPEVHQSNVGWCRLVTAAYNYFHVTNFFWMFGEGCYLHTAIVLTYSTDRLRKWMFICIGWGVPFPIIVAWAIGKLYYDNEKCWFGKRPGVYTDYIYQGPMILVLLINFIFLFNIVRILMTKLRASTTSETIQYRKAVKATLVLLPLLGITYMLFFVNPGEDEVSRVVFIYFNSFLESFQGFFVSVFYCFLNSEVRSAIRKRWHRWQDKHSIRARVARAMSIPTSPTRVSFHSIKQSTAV

Molecule: CCCCCCCCCCCCCCCC(=O)N[C@@H](CCC(=O)NCCOCCOCC(=O)NCCOCCOCC(=O)NCCCC[C@H](NC(=O)[C@H](CC(C)C)NC(=O)[C@H](CCCCN)NC(=O)[C@@H](NC(=O)[C@@H]1CCCN1C(=O)[C@H](NC(=O)[C@H](CC(=O)O)NC(=O)[C@H](CC(C)C)NC(=O)[C@H](CO)NC(=O)[C@H](CC(C)C)NC(=O)[C@@H](NC(=O)[C@@H](N)[C@@H](C)CC)C(C)C)C(C)C)[C@@H](C)CC)C(=O)N[C@@H](CCC(N)=O)C(=O)N[C@H](C(=O)N[C@@H](CC(C)C)C(=O)N[C@@H](CC(C)C)C(=O)N[C@@H](CCCCN)C(=O)N[C@@H](CCC(N)=O)C(=O)N[C@@H](CCC(=O)O)C(=O)N[C@@H](CCCNC(=N)N)C(=O)N[C@@H](CCC(N)=O)C(=O)N[C@@H](CCCCN)C(=O)N[C@@H](CCCCN)C(=O)NC(C)(C)C(=O)N[C@@H](CCCNC(=N)N)C(=O)N[C@@H](CCC(N)=O)C(=O)N[C@@H](CCCCN)C(=O)N[C@@H](C)C(=O)N[C@@H](CCC(=O)O)C(=O)N[C@@H](CCCCN)C(=O)N[C@@H](CC(N)=O)C(=O)N[C@@H](CCCCN)C(=O)N[C@@H](CCC(N)=O)C(=O)N[C@H](C(=O)N[C@@H](CC(C)C)C(=O)N[C@@H](C)C(=O)N[C@@H](CCC(N)=O)C(=O)N[C@H](C(N)=O)C(C)C)[C@@H](C)CC)[C@@H](C)CC)C(=O)O [compound 210] (H-IVLSLD[dV]PIKLK([AEEA-AEEA-γGlu-Palmitoyl])QILLKQERQKK[Aib]RQKAEKNKQILAQV-NH2)
EC50 (human CRF2α receptor): 2.98 nM

Molecule: CCCCCCCCCCCCCCCC(=O)N[C@@H](CCC(=O)N[C@@H](CCC(=O)NCCOCCOCC(=O)NCCOCCOCC(=O)NCCCC[C@H](NC(=O)[C@H](CC(C)C)NC(=O)[C@H](CCCCN)NC(=O)[C@@H](NC(=O)[C@@H]1CCCN1C(=O)[C@H](NC(=O)[C@H](CC(=O)O)NC(=O)[C@H](CC(C)C)NC(=O)[C@H](CO)NC(=O)[C@H](CC(C)C)NC(=O)[C@@H](NC(=O)[C@@H](N)[C@@H](C)CC)C(C)C)C(C)C)[C@@H](C)CC)C(=O)N[C@@H](CCC(N)=O)C(=O)N[C@H](C(=O)N[C@@H](CC(C)C)C(=O)N[C@@H](CC(C)C)C(=O)N[C@@H](CCCCN)C(=O)N[C@@H](CCC(N)=O)C(=O)N[C@@H](CCC(=O)O)C(=O)N[C@@H](CCCNC(=N)N)C(=O)N[C@@H](CCC(N)=O)C(=O)N[C@@H](CCCCN)C(=O)N[C@@H](CCCCN)C(=O)NC(C)(C)C(=O)N[C@@H](CCCNC(=N)N)C(=O)N[C@@H](CCC(N)=O)C(=O)N[C@@H](CCCCN)C(=O)N[C@@H](C)C(=O)N[C@@H](CCC(=O)O)C(=O)N[C@@H](CCCCN)C(=O)N[C@@H](CC(N)=O)C(=O)N[C@@H](CCCCN)C(=O)N[C@@H](CCC(N)=O)C(=O)N[C@H](C(=O)N[C@@H](CC(C)C)C(=O)N[C@@H](C)C(=O)N[C@@H](CCC(N)=O)C(=O)N[C@H](C(N)=O)C(C)C)[C@@H](C)CC)[C@@H](C)CC)C(=O)O)C(=O)O [compound 211] (H-IVLSLD[dV]PIKLK([AEEA-AEEA-γGlu-γGlu-Palmitoyl])QILLKQERQKK[Aib]RQKAEKNKQILAQV-NH2)
EC50 (human CRF2α receptor): 0.94 nM

B1: peptide of SEQ ID NO: 187 (peptide)
peptide: IVLSLD[dV]PIKLK([γGlu-C16 diacid])QILLKQERQK[Aib]QREQAEKNKQILAQV-NH2
modifications: N-terminus assumed
SMILES: CC[C@H](C)[C@H](N)C(=O)N[C@H](C(=O)N[C@@H](CC(C)C)C(=O)N[C@@H](CO)C(=O)N[C@@H](CC(C)C)C(=O)N[C@@H](CC(=O)O)C(=O)N[C@@H](C(=O)N1CCC[C@H]1C(=O)N[C@H](C(=O)N[C@@H](CCCCN)C(=O)N[C@@H](CC(C)C)C(=O)N[C@@H](CCCCNC(=O)CC[C@H](NC(=O)CCCCCCCCCCCCCCC(=O)O)C(=O)O)C(=O)N[C@@H](CCC(N)=O)C(=O)N[C@H](C(=O)N[C@@H](CC(C)C)C(=O)N[C@@H](CC(C)C)C(=O)N[C@@H](CCCCN)C(=O)N[C@@H](CCC(N)=O)C(=O)N[C@@H](CCC(=O)O)C(=O)N[C@@H](CCCNC(=N)N)C(=O)N[C@@H](CCC(N)=O)C(=O)N[C@@H](CCCCN)C(=O)NC(C)(C)C(=O)N[C@@H](CCC(N)=O)C(=O)N[C@@H](CCCNC(=N)N)C(=O)N[C@@H](CCC(=O)O)C(=O)N[C@@H](CCC(N)=O)C(=O)N[C@@H](C)C(=O)N[C@@H](CCC(=O)O)C(=O)N[C@@H](CCCCN)C(=O)N[C@@H](CC(N)=O)C(=O)N[C@@H](CCCCN)C(=O)N[C@@H](CCC(N)=O)C(=O)N[C@H](C(=O)N[C@@H](CC(C)C)C(=O)N[C@@H](C)C(=O)N[C@@H](CCC(N)=O)C(=O)N[C@H](C(N)=O)C(C)C)[C@@H](C)CC)[C@@H](C)CC)[C@@H](C)CC)C(C)C)C(C)C
CRF1/CRF2 ratio (of EC50) [1]: > 500
CRF1 EC50 (cAMP, HTRF) [1]: > 100 nM

Further molecules by falling EC50 (human CRF2α receptor), results first:

EC50 (human CRF2α receptor): 0.32 nM
Molecule: CCCCCCCCCCCCCCCC(=O)N[C@@H](CCC(=O)NCCOCCOCC(=O)NCCOCCOCC(=O)NCCCC[C@H](NC(=O)[C@H](CC(C)C)NC(=O)[C@H](CCCCN)NC(=O)[C@@H](NC(=O)[C@@H]1CCCN1C(=O)[C@H](NC(=O)[C@H](CC(=O)O)NC(=O)[C@H](CC(C)C)NC(=O)[C@H](CO)NC(=O)[C@H](CC(C)C)NC(=O)[C@@H](NC(=O)[C@@H](N)[C@@H](C)CC)C(C)C)C(C)C)[C@@H](C)CC)C(=O)N[C@@H](CCC(N)=O)C(=O)N[C@H](C(=O)N[C@@H](CC(C)C)C(=O)N[C@@H](CC(C)C)C(=O)N[C@@H](CCCCN)C(=O)N[C@@H](CCC(N)=O)C(=O)N[C@@H](CCC(=O)O)C(=O)N[C@@H](CCCNC(=N)N)C(=O)N[C@@H](CCC(N)=O)C(=O)N[C@@H](CCCCN)C(=O)NC(C)(C)C(=O)N[C@@H](CCC(N)=O)C(=O)N[C@@H](CCCNC(=N)N)C(=O)N[C@@H](CCC(=O)O)C(=O)N[C@@H](CCC(N)=O)C(=O)N[C@@H](C)C(=O)N[C@@H](CCC(=O)O)C(=O)N[C@@H](CCCCN)C(=O)N[C@@H](CC(N)=O)C(=O)N[C@@H](CCCCN)C(=O)N[C@@H](CCC(N)=O)C(=O)N[C@H](C(=O)N[C@@H](CC(C)C)C(=O)N[C@@H](C)C(=O)N[C@@H](CCC(N)=O)C(=O)N[C@H](C(N)=O)C(C)C)[C@@H](C)CC)[C@@H](C)CC)C(=O)O [compound 205] (H-IVLSLD[dV]PIKLK([AEEA-AEEA-γGlu-Palmitoyl])QILLKQERQK[Aib]QREQAEKNKQILAQV-NH2; N-terminus assumed)

EC50 (human CRF2α receptor): 0.09 nM
Molecule: CCCCCCCCCCCCCCCC(=O)N[C@@H](CCC(=O)N[C@@H](CCC(=O)NCCOCCOCC(=O)NCCOCCOCC(=O)NCCCC[C@H](NC(=O)[C@H](CC(C)C)NC(=O)[C@H](CCCCN)NC(=O)[C@@H](NC(=O)[C@@H]1CCCN1C(=O)[C@H](NC(=O)[C@H](CC(=O)O)NC(=O)[C@H](CC(C)C)NC(=O)[C@H](CO)NC(=O)[C@H](CC(C)C)NC(=O)[C@@H](NC(=O)[C@@H](N)[C@@H](C)CC)C(C)C)C(C)C)[C@@H](C)CC)C(=O)N[C@@H](CCC(N)=O)C(=O)N[C@H](C(=O)N[C@@H](CC(C)C)C(=O)N[C@@H](CC(C)C)C(=O)N[C@@H](CCCCN)C(=O)N[C@@H](CCC(N)=O)C(=O)N[C@@H](CCC(=O)O)C(=O)N[C@@H](CCCNC(=N)N)C(=O)N[C@@H](CCC(N)=O)C(=O)N[C@@H](CCCCN)C(=O)NC(C)(C)C(=O)N[C@@H](CCC(N)=O)C(=O)N[C@@H](CCCNC(=N)N)C(=O)N[C@@H](CCC(=O)O)C(=O)N[C@@H](CCC(N)=O)C(=O)N[C@@H](C)C(=O)N[C@@H](CCC(=O)O)C(=O)N[C@@H](CCCCN)C(=O)N[C@@H](CC(N)=O)C(=O)N[C@@H](CCCCN)C(=O)N[C@@H](CCC(N)=O)C(=O)N[C@H](C(=O)N[C@@H](CC(C)C)C(=O)N[C@@H](C)C(=O)N[C@@H](CCC(N)=O)C(=O)N[C@H](C(N)=O)C(C)C)[C@@H](C)CC)[C@@H](C)CC)C(=O)O)C(=O)O [compound 206] (H-IVLSLD[dV]PIKLK([AEEA-AEEA-γGlu-γGlu-Palmitoyl])QILLKQERQK[Aib]QREQAEKNKQILAQV-NH2; N-terminus assumed)
